Results reported in publication PMC7312375, “A Novel, Pan-PDE Inhibitor Exerts Anti-Fibrotic Effects in Human Lung Fibroblasts via Inhibition of TGF-β Signaling and Activation of cAMP/PKA Signaling” (International Journal of Molecular Sciences, 2020).

Experiments:
MRC-5 cells [1] = assay: Intracellular calcium measurements (Fluo-4); type: cell-based, human
Experimental: MRC-5 cells were briefly washed with NaHEPES buffer (NaHEPES buffer was prepared as follows: NaCl 140 mM, KCl 4.7 mM, HEPES 10 mM, MgCl2 1 mM, glucose 10 mM; pH 7.3) and then loaded with 1 µM Fluo-4 AM (Thermo Fisher Scientific, Waltham, MA, USA) for 1 h, 37 °C in NaHEPES. After the incubation, the cells were washed again with fresh NaHEPES and used for experiments in a flow chamber perfused with NaHEPES-based extracellular solution supplemented with 1 mM CaCl2. All experiments were carried out at room temperature using Zeiss LSM 880 confocal microscope (40× oil objective), excitation was set to 488 nm, and the emission was between 500 and 600 nm. Each series of images was recorded at 256 × 256-pixel resolution, two consecutive frames were averaged, and the interval between the averaged images was set at 2 s. Fluorescence signals were plotted as F/F0, where F0 was baseline fluorescence defined as the averaged signal from ten consecutive baseline images.

MRC-5 cells [2] = assay: cAMP ELISA; type: cell-based, human; settings: 10 µM, 30 min
Experimental: MRC-5 cells were seeded in standard culture medium for 24 h and then serum-starved for 2 h in HBSS. The study compounds (10 µM) were added to the MRC-5 cultures and after 30 min of incubation, the intracellular cAMP level in cell lysates was measured using a colorimetric cAMP ELISA Kit according to the manufacturer’s protocol (Cell Biolabs, INC., San Diego, CA, USA). Obtained results were normalized to total protein content in each sample. The experiments were run two times in duplicates.

MRC-5 cells [3] = assay: TGF-β1-induced collagen gel contraction assay; type: cell-based, human; settings: 10 µM, 1 h pre-incubation, 6 h TGF-β1; compared to TGF-β1 alone
Experimental: A collagen cell contraction assay was performed according to manufactures’ instructions (Cell Biolabs, INC., San Diego, CA, USA). Briefly, MRC-5 was harvested and mixed with a collagen solution. After polymerization, collagen gel lattices were cultured for two days, during which mechanical tension develops. Before releasing the stressed matrix, MRC-5 cells were pre-treated with study compounds (10 µM) for 1 h. Then collagen gels were gently released from the sides of the culture dishes and contraction in the presence of study compounds, and TGF-β1 was initiated. The collagen gel size was monitored at various time points and quantified with the Fiji ImageJ Software (National Institutes of Health, Bethesda, MD, USA, version 1.52q). The experiments were run three times.

[4] = system: TGF-β1-induced MRC-5 cells; assay: Western blot of p-Smad-2; type: cell-based, human; settings: 10 µM, 1 h pre-incubation, TGF-β1 5 ng/mL 1 h
Experimental: Western Blot analysis was performed according to a standard protocol. Briefly, MRC-5 cells were pre-incubated with the study compounds (10 µM) for 1 h, […] (RIPA Lysis and Extraction Buffer, Thermo Fisher Scientific, Waltham, MA, USA) and supplemented with protease inhibitor cocktail and phosphatase inhibitor cocktail (both from Sigma Aldrich, St. Louis, MO, USA). Equal amounts of protein (30 µg) were separated using 10% SDS-polyacrylamide gels and transferred onto polyvinylidene difluoride (PVDF) membranes (Thermo Fisher Scientific, Waltham, MA, USA). Then membranes were washed with Tris Buffered Saline with Tween 20 (TBST) buffer (150 mM NaCl, 50 mM Tris, 0.05% Tween 20), blocked with 5% skim milk in TBST and incubated overnight with the appropriate primary antibody: rabbit, polyclonal anti-SMAD2 antibody, dilution 1:250, #51-1300 and rabbit, polyclonal anti-phospho-SMAD2 (Ser465, Ser467) antibody, dilution 1:500, #44-244G (both from Thermo Fisher Scientific, Waltham, MA, USA); rabbit, polyclonal anti-CREB1 antibody, dilution 1:500, #orb213777 and rabbit, polyclonal anti-phospho-CREB1 (Ser133) antibody, dilution 1:500, #orb213775 (both from Biorbyt LLC, San Francisco, CA, USA); mouse monoclonal anti-GAPDH antibody, dilution 1:5000, #G8795 (Sigma Aldrich, St. Louis, MO, USA). The next day, after gentle rising, membranes were exposed to secondary, rabbit anti-mouse IgG (whole molecule) peroxidase antibody (#A9044, dilution 1:3000, Sigma Aldrich, St. Louis, MO, USA) and goat anti-rabbit IgG (H+L) peroxidase-conjugated antibody (#32460, dilution 1:3000, Thermo Fisher Scientific, Waltham, MA, USA). Blots were visualized using a chemiluminescence method (Clarity Max™ Western ECL Substrate—Peroxide Solution, BioRad, Hercules, CA, USA) with a C-DiGit® Blot Scanner (LI-COR Biosciences, Lincoln, NE, USA). ROD was measured according to the NIH guidelines with Fiji ImageJ Software. The experiments were run four times.

PDE3B = target: T1, PDE3B (Homo sapiens, UniProt Q13370); assay: PDE-Glo assay, human recombinant PDE3B; type: biochemical; settings: read-out: PDE-IC50 3B
T1 construct: purchased SignalChem
Experimental: Inhibitory activities of the investigated compounds against various subtypes of human recombinant (hr)PDEs, namely PDE1A, PDE1B, PDE1C, PDE3A, PDE3B, PDE4A, PDE4B, PDE4D, PDE7A, and PDE8A were assessed using a PDE-Glo^TM Assay Kit (Promega, Madison, WI, USA) according to the protocol provided by the manufacturer. Briefly, appropriate amounts of each enzyme (SignalChem, Richmond, B.C., Canada), diluted with PDE-Glo reaction buffer, were distributed on a 384-well plate (Thermo Scientific, Waltham, MA, USA). The investigated compounds were dissolved in DMSO, diluted with the same vehicle, and mixed with the reaction buffer at a v/v ratio of 1:5. Thereafter, 1 µL of these mixtures and 2.5 µL of the cAMP solution as a substrate were added. The final cAMP concentration was 0.05 µM. The samples were incubated for 10 min at 30 °C. Then, 2.5 µL of termination buffer and 2.5 µL of PDE-Glo detection solution were added to each well and incubated for 20 min. Finally, 10 µL of PDE-Glo kinase reagent was added, and luminescence was measured using the POLARstar Omega plate reader (BMG LABTECH, Ortenberg, Germany). Each sample was prepared in quadruplicate. The relative activities (A, %) of all samples were calculated from the following equation: A = [(LUsample − LUblank)/(LUcontrol − LUblank)]·100%; where LUcontrol is the luminescence of a control sample in the absence of a PDE inhibitor, LUsample is a luminescence of an investigated sample in the presence of an inhibitor, and LUblank is a luminescence of a sample in the absence of enzyme (activity = 0). IC50 values were estimated using non-linear regression.

T1 sequence (Q13370 whole entry): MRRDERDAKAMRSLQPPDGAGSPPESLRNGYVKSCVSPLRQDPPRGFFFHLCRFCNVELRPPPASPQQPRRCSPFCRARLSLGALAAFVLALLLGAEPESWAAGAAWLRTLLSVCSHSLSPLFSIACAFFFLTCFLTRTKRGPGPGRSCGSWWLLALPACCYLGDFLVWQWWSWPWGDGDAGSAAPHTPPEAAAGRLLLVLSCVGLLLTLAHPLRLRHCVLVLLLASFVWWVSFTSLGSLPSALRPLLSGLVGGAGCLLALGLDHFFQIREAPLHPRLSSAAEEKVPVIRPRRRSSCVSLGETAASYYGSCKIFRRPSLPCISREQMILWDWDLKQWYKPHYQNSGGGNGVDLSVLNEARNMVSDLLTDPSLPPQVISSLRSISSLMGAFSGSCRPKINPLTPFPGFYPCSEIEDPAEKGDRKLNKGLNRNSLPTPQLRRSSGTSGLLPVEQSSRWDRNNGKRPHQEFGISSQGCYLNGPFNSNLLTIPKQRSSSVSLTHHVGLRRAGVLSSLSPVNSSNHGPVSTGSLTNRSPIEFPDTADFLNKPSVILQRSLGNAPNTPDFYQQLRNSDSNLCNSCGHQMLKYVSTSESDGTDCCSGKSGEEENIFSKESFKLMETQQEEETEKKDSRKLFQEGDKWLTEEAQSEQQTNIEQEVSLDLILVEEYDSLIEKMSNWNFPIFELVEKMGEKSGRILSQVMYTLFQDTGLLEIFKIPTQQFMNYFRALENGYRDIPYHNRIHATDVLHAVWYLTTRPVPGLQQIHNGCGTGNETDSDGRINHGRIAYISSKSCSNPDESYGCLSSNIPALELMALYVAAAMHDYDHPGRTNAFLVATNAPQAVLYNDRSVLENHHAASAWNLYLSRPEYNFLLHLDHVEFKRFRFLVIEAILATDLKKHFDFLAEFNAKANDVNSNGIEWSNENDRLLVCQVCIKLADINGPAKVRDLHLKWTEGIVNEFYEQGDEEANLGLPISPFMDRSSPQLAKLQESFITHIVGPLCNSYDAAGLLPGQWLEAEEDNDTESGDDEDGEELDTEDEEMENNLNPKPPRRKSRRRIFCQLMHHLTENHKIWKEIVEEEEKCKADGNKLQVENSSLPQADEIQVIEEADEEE

| IC50 (PDE3B) | SMILES | increase in average Ca2+ response area over baseline (MRC-5 cells [1]; 10 µM, acute application) | Ca2+ responses under TRPA1 inhibition by HC-030031 (MRC-5 cells [1]; 145 10 µM in the presence of HC-030031 10 µM) | increase in cAMP level compared to control (MRC-5 cells [2]) | cAMP level (MRC-5 cells [2]; control 508.87) | size of collagen gel lattices (TGF-β1-induced contraction) (MRC-5 cells [3]) | TGF-β1-induced Smad-2 phosphorylation (immunoblot) [4] | effect on Ca2+ influx in lung fibroblasts (MRC-5 cells [1]; 10 µM, acute application) |
| --- | --- | --- | --- | --- | --- | --- | --- | --- |
| 420 nM | Cn1c(=O)c2c(nc(NCc3ccco3)n2CCCC(=O)NN=Cc2ccc(O)cc2O)n(C)c1=O [Compound 832, N′-(2,4-dihydroxybenzylidene)-4-(8-((furan-2-ylmethyl)amino)-1,3-dimethyl-2,6-dioxo-1,2,3,6-tetrahydro-7H-purin-7-yl)butanehydrazide] | two-fold | – | 2.16 fold | – | increased only slightly | no differences | – |
| 157000 nM | COc1nc2c(c(=O)n(C)c(=O)n2C)n1CC(=O)Nc1ccc(C(C)(C)C)cc1 [Compound 869, N-(4-(tert-butyl)phenyl)-2-(8-methoxy-1,3-dimethyl-2,6-dioxo-1,2,3,6-tetrahydro-7H-purin-7-yl)acetamide] | – | – | – | – | increased only slightly | no differences | inhibited Ca^2+ influx |
| 310 nM | CC(C)Cn1c(=O)n(C)c(=O)c2[nH]cnc21 [IBMX, 3-isobutyl-1-methyl-3,7-dihydro-1H-purine-2,6-dione, reference compound] | – | – | 2.53 fold | – | restored the size of collagen gel lattices to that of the untreated control | no differences | – |

| SMILES | IC50 (PDE3B) | increase in average Ca2+ response area over baseline (MRC-5 cells [1]; 10 µM, acute application) | Ca2+ responses under TRPA1 inhibition by HC-030031 (MRC-5 cells [1]; 145 10 µM in the presence of HC-030031 10 µM) | increase in cAMP level compared to control (MRC-5 cells [2]) | cAMP level (MRC-5 cells [2]; control 508.87) | size of collagen gel lattices (TGF-β1-induced contraction) (MRC-5 cells [3]) | TGF-β1-induced Smad-2 phosphorylation (immunoblot) [4] | effect on Ca2+ influx in lung fibroblasts (MRC-5 cells [1]; 10 µM, acute application) |
| --- | --- | --- | --- | --- | --- | --- | --- | --- |
| CCCCOc1nc2c(c(=O)n(C)c(=O)n2C)n1CCCC(=O)Nc1cc(C(C)(C)C)ccc1O [Compound 145, 4-(8-butoxy-1,3-dimethyl-2,6-dioxo-1,2,3,6-tetrahydro-7H-purin-7-yl)-N-(5-(tert-butyl)-2-hydroxyphenyl)butanamide] | 2050 nM | four-fold | failed to induce Ca^2+ responses | 4.5 fold | 2262.07 fmol/mL/mg of protein | restored the size of collagen gel lattices to that of the untreated control | reduced | – |
